The supplement of paper PMC8882468

Legend:
Test in all cases: CTG-3D luminescence at 96 h relative to day-0 seeding control (ratio to day 0); higher = more growth / less cytotoxicity; PDxO 3D drug screen, 96 h, CTG-3D normalised to day-0 seeding control.
[1] = tested on: HCI-027 (organoid from a triple-negative breast cancer xenograft)
[2] = tested on: HCI-012 (organoid from a breast cancer xenograft)
[3] = tested on: HCI-024 (organoid from a breast cancer xenograft)

O=C(O)C1(C(=O)O)CCC1.[NH2-].[NH2-].[Pt+2] [carboplatin]
CTG-3D luminescence at 96 h
Details | 12.5 pM | 0.00025 µM | 0.005 µM | 0.1 µM | 1 µM | 10 µM | 100 µM | 625 fM
[1], days in culture: 176 | – | – | – | 1.68 | 2.42 | 1.35 | 0.0917 | 1.72
[1], days in culture: 194 | – | – | – | 1.9 | 2.15 | 1.91 | 0.181 | 1.44
[1], days in culture: 201 | – | – | 2.09 | 2.08 | 2.19 | 1.53 | 0.145 | 1.71
[2], days in culture: 143 | 2.05 | 1.91 | 1.99 | 2.46 | 2.43 | 1.87 | 0.161 | 1.81
[2], days in culture: 162 | 2.3 | 1.93 | 2.03 | 2.94 | 2.7 | 2.14 | 0.261 | 2.61
[2], days in culture: 201 | 2.62 | 1.81 | 1.46 | 1.53 | 2.08 | 1.48 | 0.595 | 1.38
[3], days in culture: 105 | 1.38 | 1.54 | 1.37 | 1.52 | 1.36 | 1.64 | 0.14 | 1.71
[3], days in culture: 122 | 1.94 | 1.95 | 1.97 | 1.65 | 1.8 | 2.27 | 0.189 | 2.78
[3], days in culture: 163 | 2.01 | 2.27 | 2.06 | 2.67 | 2.1 | 2.03 | 0.608 | 2.43
